As a reminder, the EC50 is the concentration that produces a half-maximal response. By inhibition is commonly meant the drop in the measured response relative to a control, in per cent. For orientation: IC50 means the point on the concentration scale where inhibition reaches its midpoint.

Molecules are shown by their SMILES.

The text below walks through data of ChEMBL document CHEMBL2157979, “Discovery of new non-steroidal FXR ligands via a virtual screening workflow based on Phase shape and induced fit docking” (Bioorg Med Chem Lett, 2012).

The target in assay [1] is T1, Bile acid receptor (Homo sapiens, UniProt Q96RI1).
T1 sequence (Q96RI1 whole entry): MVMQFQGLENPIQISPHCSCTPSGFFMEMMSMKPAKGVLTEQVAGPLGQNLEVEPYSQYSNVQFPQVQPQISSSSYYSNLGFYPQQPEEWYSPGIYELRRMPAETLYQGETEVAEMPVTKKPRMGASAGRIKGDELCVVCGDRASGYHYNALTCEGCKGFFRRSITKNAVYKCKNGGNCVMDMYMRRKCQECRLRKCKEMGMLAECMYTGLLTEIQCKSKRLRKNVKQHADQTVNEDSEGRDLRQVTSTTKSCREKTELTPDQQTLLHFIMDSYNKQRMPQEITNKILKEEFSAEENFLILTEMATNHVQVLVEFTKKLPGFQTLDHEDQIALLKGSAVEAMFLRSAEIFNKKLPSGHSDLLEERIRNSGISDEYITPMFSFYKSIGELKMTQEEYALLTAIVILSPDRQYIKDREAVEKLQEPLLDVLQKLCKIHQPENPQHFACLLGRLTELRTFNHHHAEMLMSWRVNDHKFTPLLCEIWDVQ
Nature of the assay: Agonist activity at FXR. The assay is classed as functional.

Assay [2] deals with T2, Bile acid receptor (Homo sapiens) (UniProt Q96RI1).
T2 sequence (whole entry): T1 sequence (Q96RI1 whole entry)
Put plainly: Agonist activity at GST-tagged FXRalpha ligand binding domain assessed as biotinylated SRC1 binding at 20 uM after 30 mins by HTRF assay.

Assay [3] has as its target T2, Bile acid receptor (Homo sapiens). Nature of the assay: Antagonist activity at GST-tagged FXRalpha ligand binding domain assessed as inhibition of CDCA-induced biotinylated SRC1 binding at 20 uM after 30 mins by HTRF assay. (In general: Time-resolved FRET reads energy transfer from a long-lived donor to a nearby acceptor.)
For assay [4] the target is unchanged. Nature of the assay: (§1) Antagonist activity at GST-tagged FXRalpha ligand binding domain assessed as inhibition of CDCA-induced biotinylated SRC1 binding after 30 mins by HTRF assay.
Assay [5] concerns the target T1, Bile acid receptor. Described as §1.
Assay [6] has as its target T2, Bile acid receptor (Homo sapiens). Nature of the assay: (§2) Agonist activity at GST-tagged FXRalpha ligand binding domain assessed as biotinylated SRC1 binding after 30 mins by HTRF assay.
The target of assay [7] is T1, Bile acid receptor. Described as §2.
In assay [8] the target is T2, Bile acid receptor (Homo sapiens). Put plainly: (§3) Agonist activity at FXRalpha expressed in HEK293 cells assessed as increase in transcriptional activity after 18 hrs by luciferase reporter gene assay. Format: functional, cell-based.
Assay [9] deals with T1, Bile acid receptor. Described as §3. Format: functional, cell-based.

Consider `Cc1cc(OCc2c(-c3c(Cl)cncc3Cl)noc2C(C)C)ccc1-c1ccc2c(c1)c(C(=O)O)cn2C`, for which a half-maximal response in assay [1] (EC50) required 0.094 µM.

Turning to `C[C@@H]1CCc2c(sc3nc(CN4CCOCC4)nc(N[C@H](c4ccccc4)c4ccccn4)c23)C1`, the Activity in [2] was < 5%. Besides, the inhibition in assay [3] is 57.1%; in [4] it was “Dose-dependent effect”. The half-inhibitory concentration (IC50) in assay [5] was 8.23 µM.

Take `NC(=O)c1ccc(NC(=O)[C@@H](Cc2ccccc2)NC(=O)c2ccc(Cl)cc2)cc1`: the figures for the Activity in assay [2], in [6] and in assay [8] were 52.5%, “Dose-dependent effect” and “Dose-dependent effect”, respectively. In assay [3], the inhibition is 7.28%. Besides, the EC50 in [7] is 12.9 µM; in [9], 2.6 µM.

In assay [1], `COC(=O)/C=C/c1cccc(N(Cc2ccc(/C=C/c3ccccc3)cc2)C(=O)C2CCCCC2)c1` came in with an EC50 of 0.036 µM.

For the compound `O=C(COC(=O)c1ccc(O)cc1)Nc1sc2c(c1C(=O)c1ccccc1)CCCC2`, in assay [2], the Activity was < 5%. For the same compound, the values for the inhibition in [3] and in assay [4] were 63.3% and “Dose-dependent effect”, respectively. Further, the IC50 in [5] was found to be 3.77 µM.
